ChEMBL document CHEMBL4507275, “Data for DCP probe BI-2545” (2021)

How the values were obtained:
[1] = test system: Tyrosine-protein kinase ABL1 (Homo sapiens), P00519 [F317I]; conditions: Compound concentration 1000.0 nM
[2] = test system: Tyrosine-protein kinase ABL1 (Homo sapiens), P00519 [F317I]; conditions: Compound concentration 1000.0 nM; remark: listed apart in the source
[3] = test system: Tyrosine-protein kinase ABL1 (Homo sapiens), P00519 [H396P]; conditions: Compound concentration 1000.0 nM
[4] = biological target: Bone morphogenetic protein receptor type-1B (Homo sapiens) (UniProt O00238); conditions: Compound concentration 1000.0 nM
[5] = biological target: Calcium/calmodulin-dependent protein kinase type 1G (Homo sapiens) (UniProt Q96NX5); conditions: Compound concentration 1000.0 nM
Calcium/calmodulin-dependent protein kinase type 1G (Homo sapiens), sequence (Q96NX5 whole entry): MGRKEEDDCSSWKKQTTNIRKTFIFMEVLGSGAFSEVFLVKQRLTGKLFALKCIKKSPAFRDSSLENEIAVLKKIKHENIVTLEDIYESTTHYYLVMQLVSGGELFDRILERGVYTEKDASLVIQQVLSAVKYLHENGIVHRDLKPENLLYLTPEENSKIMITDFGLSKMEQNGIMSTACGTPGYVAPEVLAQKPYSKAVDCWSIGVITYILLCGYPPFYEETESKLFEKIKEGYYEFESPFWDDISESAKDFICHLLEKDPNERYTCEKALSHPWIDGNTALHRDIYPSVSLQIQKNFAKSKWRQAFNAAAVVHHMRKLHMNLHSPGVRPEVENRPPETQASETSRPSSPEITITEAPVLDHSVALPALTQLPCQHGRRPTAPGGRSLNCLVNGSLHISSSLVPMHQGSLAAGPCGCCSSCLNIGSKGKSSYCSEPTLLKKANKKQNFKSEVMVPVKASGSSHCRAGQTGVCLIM

[6] = biological target: Calcium/calmodulin-dependent protein kinase type II subunit alpha (Homo sapiens) (UniProt Q9UQM7); conditions: Compound concentration 1000.0 nM
[7] = biological target: Calcium/calmodulin-dependent protein kinase kinase 1 (Homo sapiens) (UniProt Q8N5S9); conditions: Compound concentration 1000.0 nM
[8] = biological target: Cyclin-dependent kinase-like 1 (Homo sapiens) (UniProt Q00532); conditions: Compound concentration 1000.0 nM
[9] = biological target: Macrophage colony-stimulating factor 1 receptor (Homo sapiens) (UniProt P07333); conditions: Compound concentration 1000.0 nM
[10] = biological target: Discoidin domain-containing receptor 2 (Homo sapiens) (UniProt Q16832); conditions: Compound concentration 1000.0 nM
[11] = test system: Epidermal growth factor receptor (Homo sapiens), P00533 [G719C]; conditions: Compound concentration 1000.0 nM
[12] = test system: Epidermal growth factor receptor (Homo sapiens), P00533 [UNDEFINED MUTATION]; conditions: Compound concentration 1000.0 nM
[13] = biological target: Ephrin type-B receptor 3 (Homo sapiens) (UniProt P54753); conditions: Compound concentration 1000.0 nM
[14] = biological target: Ephrin type-B receptor 6 (Homo sapiens) (UniProt O15197); conditions: Compound concentration 1000.0 nM
[15] = biological target: Mitogen-activated protein kinase 1 (Homo sapiens) (UniProt P28482); conditions: Compound concentration 1000.0 nM
[16] = biological target: Focal adhesion kinase 1 (Homo sapiens) (UniProt Q05397); conditions: Compound concentration 1000.0 nM
[17] = biological target: Vascular endothelial growth factor receptor 1 (Homo sapiens) (UniProt P17948); conditions: Compound concentration 1000.0 nM
[18] = biological target: Tyrosine-protein kinase Fyn (Homo sapiens) (UniProt P06241); conditions: Compound concentration 1000.0 nM
[19] = biological target: Beta-adrenergic receptor kinase 1 (Homo sapiens) (UniProt P25098); conditions: Compound concentration 1000.0 nM
[20] = biological target: Mast/stem cell growth factor receptor Kit (Homo sapiens) (UniProt P10721); conditions: Compound concentration 1000.0 nM
Mast/stem cell growth factor receptor Kit (Homo sapiens), sequence (P10721 whole entry): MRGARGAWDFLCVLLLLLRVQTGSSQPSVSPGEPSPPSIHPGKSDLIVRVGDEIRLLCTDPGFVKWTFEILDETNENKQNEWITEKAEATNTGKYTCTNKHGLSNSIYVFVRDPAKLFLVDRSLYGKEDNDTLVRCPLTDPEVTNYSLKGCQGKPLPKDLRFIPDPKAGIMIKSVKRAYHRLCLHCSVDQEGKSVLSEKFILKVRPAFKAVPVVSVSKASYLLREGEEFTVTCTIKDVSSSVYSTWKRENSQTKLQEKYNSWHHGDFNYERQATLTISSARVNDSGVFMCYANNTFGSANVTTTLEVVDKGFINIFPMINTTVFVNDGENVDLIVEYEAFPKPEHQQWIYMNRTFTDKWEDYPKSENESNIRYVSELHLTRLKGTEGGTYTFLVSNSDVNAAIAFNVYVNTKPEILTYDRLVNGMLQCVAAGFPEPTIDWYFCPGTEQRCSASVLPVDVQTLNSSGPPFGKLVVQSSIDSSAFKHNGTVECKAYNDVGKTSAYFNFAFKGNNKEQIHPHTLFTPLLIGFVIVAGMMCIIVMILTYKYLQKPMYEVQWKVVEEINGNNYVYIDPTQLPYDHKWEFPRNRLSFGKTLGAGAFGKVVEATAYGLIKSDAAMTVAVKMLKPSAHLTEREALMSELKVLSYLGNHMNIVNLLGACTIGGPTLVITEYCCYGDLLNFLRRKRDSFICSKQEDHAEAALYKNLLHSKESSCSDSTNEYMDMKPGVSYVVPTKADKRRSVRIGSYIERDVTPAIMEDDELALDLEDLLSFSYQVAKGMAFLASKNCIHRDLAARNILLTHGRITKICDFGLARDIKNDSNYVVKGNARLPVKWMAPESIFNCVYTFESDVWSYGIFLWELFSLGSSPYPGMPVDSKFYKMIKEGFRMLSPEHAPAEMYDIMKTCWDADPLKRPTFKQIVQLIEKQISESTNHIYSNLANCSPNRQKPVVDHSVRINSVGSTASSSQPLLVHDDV

[21] = test system: Mast/stem cell growth factor receptor Kit (Homo sapiens), P10721 [A829P]; conditions: Compound concentration 1000.0 nM
[22] = test system: Mast/stem cell growth factor receptor Kit (Homo sapiens), P10721 [D816H]; conditions: Compound concentration 1000.0 nM
[23] = test system: Mast/stem cell growth factor receptor Kit (Homo sapiens), P10721 [D816V]; conditions: Compound concentration 1000.0 nM
[24] = test system: Mast/stem cell growth factor receptor Kit (Homo sapiens), P10721 [V559D]; conditions: Compound concentration 1000.0 nM
[25] = biological target: LIM domain kinase 2 (Homo sapiens) (UniProt P53671); conditions: Compound concentration 1000.0 nM
LIM domain kinase 2 (Homo sapiens), sequence (P53671 whole entry, looked up, the tested form may be a part): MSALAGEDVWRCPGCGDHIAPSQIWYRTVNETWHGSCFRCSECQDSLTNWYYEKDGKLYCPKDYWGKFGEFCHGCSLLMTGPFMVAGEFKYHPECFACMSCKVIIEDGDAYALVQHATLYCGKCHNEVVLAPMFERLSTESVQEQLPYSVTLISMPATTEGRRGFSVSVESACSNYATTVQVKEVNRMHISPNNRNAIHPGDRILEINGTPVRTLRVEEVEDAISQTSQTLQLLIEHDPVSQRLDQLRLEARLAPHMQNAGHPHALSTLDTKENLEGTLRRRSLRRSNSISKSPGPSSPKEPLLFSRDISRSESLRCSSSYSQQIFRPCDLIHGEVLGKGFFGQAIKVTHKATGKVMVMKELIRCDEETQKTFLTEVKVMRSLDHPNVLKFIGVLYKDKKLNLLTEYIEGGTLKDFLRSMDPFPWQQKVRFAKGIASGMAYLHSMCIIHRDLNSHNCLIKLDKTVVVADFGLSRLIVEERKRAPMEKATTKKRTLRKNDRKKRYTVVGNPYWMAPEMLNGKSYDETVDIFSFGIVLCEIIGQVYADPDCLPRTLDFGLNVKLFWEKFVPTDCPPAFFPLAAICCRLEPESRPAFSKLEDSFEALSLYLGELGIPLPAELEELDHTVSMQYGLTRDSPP

[26] = biological target: Dual specificity mitogen-activated protein kinase kinase 6 (Homo sapiens) (UniProt P52564); conditions: Compound concentration 1000.0 nM
Dual specificity mitogen-activated protein kinase kinase 6 (Homo sapiens), sequence (P52564 whole entry): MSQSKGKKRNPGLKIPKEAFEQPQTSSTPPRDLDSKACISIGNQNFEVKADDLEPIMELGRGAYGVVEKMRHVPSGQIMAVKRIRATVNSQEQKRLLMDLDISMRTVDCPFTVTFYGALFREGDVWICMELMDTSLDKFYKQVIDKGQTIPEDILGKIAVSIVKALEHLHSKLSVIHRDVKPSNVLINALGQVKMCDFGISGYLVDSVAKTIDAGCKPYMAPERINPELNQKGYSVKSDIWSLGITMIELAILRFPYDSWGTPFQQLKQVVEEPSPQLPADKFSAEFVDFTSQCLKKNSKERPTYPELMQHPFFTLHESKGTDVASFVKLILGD

[27] = biological target: Hepatocyte growth factor receptor (Homo sapiens) (UniProt P08581); conditions: Compound concentration 1000.0 nM
[28] = biological target: Myosin light chain kinase family member 4 (Homo sapiens) (UniProt Q86YV6); conditions: Compound concentration 1000.0 nM
[29] = biological target: Serine/threonine-protein kinase Nek3 (Homo sapiens) (UniProt P51956); conditions: Compound concentration 1000.0 nM
Serine/threonine-protein kinase Nek3 (Homo sapiens), sequence (P51956 whole entry): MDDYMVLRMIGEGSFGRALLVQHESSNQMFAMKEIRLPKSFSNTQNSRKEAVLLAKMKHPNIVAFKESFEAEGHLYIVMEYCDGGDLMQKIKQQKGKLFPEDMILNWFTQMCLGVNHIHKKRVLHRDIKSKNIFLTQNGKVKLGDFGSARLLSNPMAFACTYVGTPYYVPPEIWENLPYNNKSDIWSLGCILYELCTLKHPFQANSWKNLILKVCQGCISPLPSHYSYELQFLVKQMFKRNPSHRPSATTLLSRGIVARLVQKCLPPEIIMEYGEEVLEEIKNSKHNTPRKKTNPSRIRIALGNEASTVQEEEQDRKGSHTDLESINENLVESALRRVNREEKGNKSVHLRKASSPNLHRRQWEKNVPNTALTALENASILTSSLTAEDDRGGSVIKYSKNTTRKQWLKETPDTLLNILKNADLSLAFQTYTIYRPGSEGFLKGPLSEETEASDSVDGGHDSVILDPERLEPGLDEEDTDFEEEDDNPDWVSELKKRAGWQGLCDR

[30] = biological target: Mitogen-activated protein kinase kinase kinase 14 (Homo sapiens) (UniProt Q99558); conditions: Compound concentration 1000.0 nM
[31] = biological target: Serine/threonine-protein kinase PAK 4 (Homo sapiens) (UniProt O96013); conditions: Compound concentration 1000.0 nM
[32] = biological target: Cyclin-dependent kinase 14 (Homo sapiens) (UniProt O94921); conditions: Compound concentration 1000.0 nM
[33] = biological target: Serine/threonine-protein kinase N1 (Homo sapiens) (UniProt Q16512); conditions: Compound concentration 1000.0 nM
[34] = biological target: Serine/threonine-protein kinase PLK3 (Homo sapiens) (UniProt Q9H4B4); conditions: Compound concentration 1000.0 nM
[35] = biological target: Protein kinase C theta type (Homo sapiens) (UniProt Q04759); conditions: Compound concentration 1000.0 nM
[36] = biological target: Serine/threonine-protein kinase D2 (Homo sapiens) (UniProt Q9BZL6); conditions: Compound concentration 1000.0 nM
[37] = biological target: Serine/threonine-protein kinase SIK3 (Homo sapiens) (UniProt Q9Y2K2); conditions: Compound concentration 1000.0 nM
[38] = biological target: Receptor-interacting serine/threonine-protein kinase 1 (Homo sapiens) (UniProt Q13546); conditions: Compound concentration 1000.0 nM
Receptor-interacting serine/threonine-protein kinase 1 (Homo sapiens), sequence (Q13546 whole entry): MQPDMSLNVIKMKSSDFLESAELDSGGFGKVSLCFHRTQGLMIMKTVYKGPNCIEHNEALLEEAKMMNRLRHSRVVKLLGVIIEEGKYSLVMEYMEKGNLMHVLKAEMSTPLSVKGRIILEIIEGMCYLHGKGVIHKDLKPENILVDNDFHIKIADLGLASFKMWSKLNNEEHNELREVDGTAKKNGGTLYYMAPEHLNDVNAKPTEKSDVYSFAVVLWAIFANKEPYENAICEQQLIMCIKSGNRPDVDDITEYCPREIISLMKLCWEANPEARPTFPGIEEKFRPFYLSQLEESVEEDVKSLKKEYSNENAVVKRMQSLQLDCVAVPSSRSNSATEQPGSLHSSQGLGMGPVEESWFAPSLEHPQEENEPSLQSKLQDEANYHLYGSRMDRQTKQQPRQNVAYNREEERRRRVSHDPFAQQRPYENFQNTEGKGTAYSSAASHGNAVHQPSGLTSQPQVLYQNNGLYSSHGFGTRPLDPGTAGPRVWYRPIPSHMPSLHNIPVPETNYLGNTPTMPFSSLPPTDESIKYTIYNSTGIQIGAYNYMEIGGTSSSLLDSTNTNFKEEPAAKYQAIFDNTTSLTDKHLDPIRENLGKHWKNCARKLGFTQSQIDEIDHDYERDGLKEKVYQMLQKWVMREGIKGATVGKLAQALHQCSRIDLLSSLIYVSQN

[39] = biological target: Ribosomal protein S6 kinase alpha-1 (Homo sapiens) (UniProt Q15418); conditions: Compound concentration 1000.0 nM
Ribosomal protein S6 kinase alpha-1 (Homo sapiens), sequence (Q15418 whole entry): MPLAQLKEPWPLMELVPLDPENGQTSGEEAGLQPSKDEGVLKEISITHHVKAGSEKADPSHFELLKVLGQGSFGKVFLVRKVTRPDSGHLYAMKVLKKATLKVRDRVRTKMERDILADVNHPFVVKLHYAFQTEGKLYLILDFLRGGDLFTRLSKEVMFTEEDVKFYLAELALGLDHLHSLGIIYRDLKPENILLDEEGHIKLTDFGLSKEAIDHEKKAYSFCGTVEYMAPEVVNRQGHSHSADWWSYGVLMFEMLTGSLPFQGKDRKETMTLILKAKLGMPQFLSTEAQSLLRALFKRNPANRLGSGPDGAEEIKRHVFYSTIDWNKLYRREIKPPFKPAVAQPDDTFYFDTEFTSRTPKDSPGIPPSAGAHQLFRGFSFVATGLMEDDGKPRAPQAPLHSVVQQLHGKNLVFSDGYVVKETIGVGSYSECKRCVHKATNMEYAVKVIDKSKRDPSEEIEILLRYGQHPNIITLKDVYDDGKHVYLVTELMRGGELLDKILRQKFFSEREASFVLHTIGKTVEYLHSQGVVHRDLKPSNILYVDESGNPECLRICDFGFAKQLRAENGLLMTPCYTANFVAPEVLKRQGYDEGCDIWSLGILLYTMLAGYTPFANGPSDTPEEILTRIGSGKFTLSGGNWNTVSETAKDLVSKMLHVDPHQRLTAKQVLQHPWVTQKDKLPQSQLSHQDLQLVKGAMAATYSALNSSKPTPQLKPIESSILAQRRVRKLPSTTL

[40] = biological target: Ribosomal protein S6 kinase alpha-2 (Homo sapiens) (UniProt Q15349); conditions: Compound concentration 1000.0 nM
[41] = biological target: Transient receptor potential cation channel subfamily M member 6 (Homo sapiens) (UniProt Q9BX84); conditions: Compound concentration 1000.0 nM
[42] = biological target: Serine/threonine-protein kinase WNK1 (Homo sapiens) (UniProt Q9H4A3); conditions: Compound concentration 1000.0 nM
[43] = biological target: Tyrosine-protein kinase Yes (Homo sapiens) (UniProt P07947); conditions: Compound concentration 1000.0 nM
Tyrosine-protein kinase Yes (Homo sapiens), sequence (P07947 2-543 limits assumed): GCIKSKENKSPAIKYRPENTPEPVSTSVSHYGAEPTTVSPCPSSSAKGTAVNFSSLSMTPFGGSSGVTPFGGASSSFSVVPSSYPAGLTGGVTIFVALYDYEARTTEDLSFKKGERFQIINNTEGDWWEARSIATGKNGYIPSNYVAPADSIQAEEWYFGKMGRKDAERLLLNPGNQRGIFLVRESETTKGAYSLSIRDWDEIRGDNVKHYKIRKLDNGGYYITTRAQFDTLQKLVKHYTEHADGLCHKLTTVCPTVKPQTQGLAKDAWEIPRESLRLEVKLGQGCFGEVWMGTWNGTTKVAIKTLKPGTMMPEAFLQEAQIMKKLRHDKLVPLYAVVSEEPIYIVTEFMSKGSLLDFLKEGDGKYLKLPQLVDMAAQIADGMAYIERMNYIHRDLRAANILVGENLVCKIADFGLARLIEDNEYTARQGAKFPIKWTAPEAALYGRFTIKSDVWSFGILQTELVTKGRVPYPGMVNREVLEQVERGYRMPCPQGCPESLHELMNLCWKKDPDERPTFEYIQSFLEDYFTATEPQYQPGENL

[44] = biological target: 5-hydroxytryptamine receptor 7 (Homo sapiens) (UniProt P34969); conditions: Compound concentration 10.0 uM
[45] = biological target: Alpha-2B adrenergic receptor (Homo sapiens) (UniProt P18089); conditions: Compound concentration 10.0 uM

O=C(NC[C@@H]1[C@H]2CN(C(=O)OCc3cc(C(F)(F)F)cc(C(F)(F)F)c3)C[C@@H]12)c1ccc2[nH]nnc2c1 [BI 2545]
inactive: residual activity [1] 89% | residual activity [2] 88% | residual activity [3] 84% | residual activity [4] 95% | residual activity [5] 100% | residual activity [6] 91% | residual activity [7] 91% | residual activity [8] 84% | residual activity [9] 95% | residual activity [10] 82% | residual activity [11] 100% | residual activity [12] 83% | residual activity [13] 81% | residual activity [14] 100% | residual activity [15] 100% | residual activity [16] 100% | residual activity [17] 82% | residual activity [18] 85% | residual activity [19] 71% | residual activity [20] 89% | residual activity [21] 100% | residual activity [22] 100% | residual activity [23] 93% | residual activity [24] 88% | residual activity [25] 83% | residual activity [26] 72% | residual activity [27] 100% | residual activity [28] 100% | residual activity [29] 100% | residual activity [30] 77% | residual activity [31] 100% | residual activity [32] 96% | residual activity [33] 100% | residual activity [34] 89% | residual activity [35] 100% | residual activity [36] 85% | residual activity [37] 79% | residual activity [38] 89% | residual activity [39] 94% | residual activity [40] 100% | residual activity [41] 92% | residual activity [42] 90% | residual activity [43] 100% | inhibition [44] 19% | inhibition [45] 25.2%

Cc1nccc(COC(=O)N2C[C@@H]3[C@@H](CNC(=O)c4ccc5[nH]nnc5c4)[C@@H]3C2)n1 [BI 3017]
inactive: residual activity [1] 100% | residual activity [2] 81% | residual activity [3] 93% | residual activity [4] 100% | residual activity [5] 100% | residual activity [6] 65% | residual activity [7] 100% | residual activity [8] 81% | residual activity [9] 100% | residual activity [10] 77% | residual activity [11] 100% | residual activity [12] 100% | residual activity [13] 100% | residual activity [14] 99% | residual activity [15] 100% | residual activity [16] 100% | residual activity [17] 100% | residual activity [18] 100% | residual activity [19] 100% | residual activity [20] 89% | residual activity [21] 94% | residual activity [22] 99% | residual activity [23] 100% | residual activity [24] 86% | residual activity [25] 92% | residual activity [26] 100% | residual activity [27] 94% | residual activity [28] 89% | residual activity [29] 100% | residual activity [30] 66% | residual activity [31] 100% | residual activity [32] 100% | residual activity [33] 100% | residual activity [34] 73% | residual activity [35] 91% | residual activity [36] 92% | residual activity [37] 100% | residual activity [38] 86% | residual activity [39] 98% | residual activity [40] 100% | residual activity [41] 85% | residual activity [42] 86% | residual activity [43] 100% | inhibition [44] 9.56% | inhibition [45] 1.15%
